From US20140342379A1, “Means and Methods for Assessing Gonadal Toxicity” (BASF SE, priority 2011, published 2014)
Marks after values point to notes of the source that are not given here.

System: male rats
Assay: 28-day repeated dose study, plasma metabolite profiling (GC-MS, LC-MS), male rats
Assay type: in vivo, rat
Source text: Drinking water was also offered ad libitum.

Compound: CC(=O)CCC(C)=O [2,5-hexanedione]
- 18-Hydroxy-11-deoxycorticosterone, plasma, treatment ratio versus control (day 7): 0.89
- Alanine, plasma, treatment ratio versus control (day 7): 0.71*
- Arachidonic acid (C20:cis[5,8,11,14]4), plasma, treatment ratio versus control (day 7): 0.9
- Coenzyme Q9, plasma, treatment ratio versus control (day 7): 0.89
- Creatinine, plasma, treatment ratio versus control (day 7): 1.21*
- DAG (C18:1, C18:2), plasma, treatment ratio versus control (day 7): 0.51*
- Fructose-6-phosphate, plasma, treatment ratio versus control (day 7): 0.75*
- Galactose, lipid fraction, plasma, treatment ratio versus control (day 7): 0.96
- Glucosamine, plasma, treatment ratio versus control (day 7): 0.79*
- Glucose, plasma, treatment ratio versus control (day 7): 0.85*
- Glycerol, polar fraction, plasma, treatment ratio versus control (day 7): 0.96
- Heneicosanoic acid (C21:0), plasma, treatment ratio versus control (day 7): 0.97
- Lactate, plasma, treatment ratio versus control (day 7): 0.82*
- Linolenic acid (C18:cis[9,12,15]3), plasma, treatment ratio versus control (day 7): 0.89*
- Lysine, plasma, treatment ratio versus control (day 7): 0.96*
- Malate, plasma, treatment ratio versus control (day 7): 0.79*
- Oleic acid (C18:cis[9]1), plasma, treatment ratio versus control (day 7): 0.81*
- Palmitoleic acid (C16:cis[9]1), plasma, treatment ratio versus control (day 7): 0.82*
- Phenylalanine, plasma, treatment ratio versus control (day 7): 0.85*
- Phosphate (inorganic and organic phosphates), plasma, treatment ratio versus control (day 7): 0.89*
- Pyruvate, plasma, treatment ratio versus control (day 7): 1.04
- Spermidine, plasma, treatment ratio versus control (day 7): 0.95
- TAG (C16:0,C16:1), plasma, treatment ratio versus control (day 7): 0.49*
- Uracil, plasma, treatment ratio versus control (day 7): 0.85*
- myo-Inositol, plasma, treatment ratio versus control (day 7): 0.71*
- trans-4-Hydroxyproline, plasma, treatment ratio versus control (day 7): 0.84*
- 18-Hydroxy-11-deoxycorticosterone, plasma, treatment ratio versus control (day 14): 0.33*
- Alanine, plasma, treatment ratio versus control (day 14): 0.76*
- Arachidonic acid (C20:cis[5,8,11,14]4), plasma, treatment ratio versus control (day 14): 0.93
- Coenzyme Q9, plasma, treatment ratio versus control (day 14): 1.12*
- Creatinine, plasma, treatment ratio versus control (day 14): 1.64*
- DAG (C18:1, C18:2), plasma, treatment ratio versus control (day 14): 0.6*
- Fructose-6-phosphate, plasma, treatment ratio versus control (day 14): 0.7*
- Galactose, lipid fraction, plasma, treatment ratio versus control (day 14): 0.97
- Glucosamine, plasma, treatment ratio versus control (day 14): 0.9
- Glucose, plasma, treatment ratio versus control (day 14): 0.89*
- Glycerol, polar fraction, plasma, treatment ratio versus control (day 14): 0.98
- Heneicosanoic acid (C21:0), plasma, treatment ratio versus control (day 14): 0.84
- Lactate, plasma, treatment ratio versus control (day 14): 0.69*
- Linolenic acid (C18:cis[9,12,15]3), plasma, treatment ratio versus control (day 14): 0.57*
- Lysine, plasma, treatment ratio versus control (day 14): 0.93*
- Malate, plasma, treatment ratio versus control (day 14): 0.82*
- Oleic acid (C18:cis[9]1), plasma, treatment ratio versus control (day 14): 0.81*
- Palmitoleic acid (C16:cis[9]1), plasma, treatment ratio versus control (day 14): 1.03
- Phenylalanine, plasma, treatment ratio versus control (day 14): 0.84*
- Phosphate (inorganic and organic phosphates), plasma, treatment ratio versus control (day 14): 1
- Pyruvate, plasma, treatment ratio versus control (day 14): 0.95
- Spermidine, plasma, treatment ratio versus control (day 14): 0.89*
- TAG (C16:0,C16:1), plasma, treatment ratio versus control (day 14): 0.67*
- Uracil, plasma, treatment ratio versus control (day 14): 0.83*
- myo-Inositol, plasma, treatment ratio versus control (day 14): 0.79*
- trans-4-Hydroxyproline, plasma, treatment ratio versus control (day 14): 0.91*
- 18-Hydroxy-11-deoxycorticosterone, plasma, treatment ratio versus control (day 28): 0.24*
- Alanine, plasma, treatment ratio versus control (day 28): 0.77*
- Arachidonic acid (C20:cis[5,8,11,14]4), plasma, treatment ratio versus control (day 28): 1.03
- Coenzyme Q9, plasma, treatment ratio versus control (day 28): 1.02
- Creatinine, plasma, treatment ratio versus control (day 28): 1.35*
- DAG (C18:1, C18:2), plasma, treatment ratio versus control (day 28): 0.79*
- Fructose-6-phosphate, plasma, treatment ratio versus control (day 28): 0.69*
- Galactose, lipid fraction, plasma, treatment ratio versus control (day 28): 0.99
- Glucosamine, plasma, treatment ratio versus control (day 28): 0.91*
- Glucose, plasma, treatment ratio versus control (day 28): 0.85*
- Glycerol, polar fraction, plasma, treatment ratio versus control (day 28): 0.8*
- Heneicosanoic acid (C21:0), plasma, treatment ratio versus control (day 28): 0.99
- Lactate, plasma, treatment ratio versus control (day 28): 0.66*
- Linolenic acid (C18:cis[9,12,15]3), plasma, treatment ratio versus control (day 28): 0.92*
- Lysine, plasma, treatment ratio versus control (day 28): 0.96
- Malate, plasma, treatment ratio versus control (day 28): 0.74*
- Oleic acid (C18:cis[9]1), plasma, treatment ratio versus control (day 28): 0.92*
- Palmitoleic acid (C16:cis[9]1), plasma, treatment ratio versus control (day 28): 1.11
- Phenylalanine, plasma, treatment ratio versus control (day 28): 0.89*
- Phosphate (inorganic and organic phosphates), plasma, treatment ratio versus control (day 28): 1.01
- Pyruvate, plasma, treatment ratio versus control (day 28): 0.72*
- Spermidine, plasma, treatment ratio versus control (day 28): 0.94
- TAG (C16:0,C16:1), plasma, treatment ratio versus control (day 28): 0.95
- Uracil, plasma, treatment ratio versus control (day 28): 0.87*
- myo-Inositol, plasma, treatment ratio versus control (day 28): 0.89
- trans-4-Hydroxyproline, plasma, treatment ratio versus control (day 28): 0.87*

Compound: CCCCOCCO [2-Butoxyethanol]
- 18-Hydroxy-11-deoxycorticosterone, plasma, treatment ratio versus control (day 7): 0.18*
- Alanine, plasma, treatment ratio versus control (day 7): 0.83*
- Arachidonic acid (C20:cis[5,8,11,14]4), plasma, treatment ratio versus control (day 7): 0.86*
- Coenzyme Q9, plasma, treatment ratio versus control (day 7): 0.83*
- Creatinine, plasma, treatment ratio versus control (day 7): 1.03
- DAG (C18:1, C18:2), plasma, treatment ratio versus control (day 7): 0.99
- Fructose-6-phosphate, plasma, treatment ratio versus control (day 7): 0.84
- Galactose, lipid fraction, plasma, treatment ratio versus control (day 7): 0.8*
- Glucosamine, plasma, treatment ratio versus control (day 7): 1
- Glucose, plasma, treatment ratio versus control (day 7): 0.81*
- Glycerol, polar fraction, plasma, treatment ratio versus control (day 7): 0.86*
- Heneicosanoic acid (C21:0), plasma, treatment ratio versus control (day 7): 0.88
- Lactate, plasma, treatment ratio versus control (day 7): 0.93*
- Linolenic acid (C18:cis[9,12,15]3), plasma, treatment ratio versus control (day 7): 1.01
- Lysine, plasma, treatment ratio versus control (day 7): 0.81*
- Malate, plasma, treatment ratio versus control (day 7): 0.81*
- Oleic acid (C18:cis[9]1), plasma, treatment ratio versus control (day 7): 0.98
- Palmitoleic acid (C16:cis[9]1), plasma, treatment ratio versus control (day 7): 0.94
- Phenylalanine, plasma, treatment ratio versus control (day 7): 0.87*
- Phosphate (inorganic and organic phosphates), plasma, treatment ratio versus control (day 7): 1.05
- Pyruvate, plasma, treatment ratio versus control (day 7): 1.1
- Spermidine, plasma, treatment ratio versus control (day 7): 0.67*
- TAG (C16:0,C16:1), plasma, treatment ratio versus control (day 7): 1.16
- Uracil, plasma, treatment ratio versus control (day 7): 0.77*
- myo-Inositol, plasma, treatment ratio versus control (day 7): 0.88
- trans-4-Hydroxyproline, plasma, treatment ratio versus control (day 7): 1.03
- 18-Hydroxy-11-deoxycorticosterone, plasma, treatment ratio versus control (day 14): 0.44*
- Alanine, plasma, treatment ratio versus control (day 14): 0.93
- Arachidonic acid (C20:cis[5,8,11,14]4), plasma, treatment ratio versus control (day 14): 0.84
- Coenzyme Q9, plasma, treatment ratio versus control (day 14): 0.5*
- Creatinine, plasma, treatment ratio versus control (day 14): 1.34*
- DAG (C18:1, C18:2), plasma, treatment ratio versus control (day 14): 0.69*
- Fructose-6-phosphate, plasma, treatment ratio versus control (day 14): 1.11
- Galactose, lipid fraction, plasma, treatment ratio versus control (day 14): 0.86
- Glucosamine, plasma, treatment ratio versus control (day 14): 0.88
- Glucose, plasma, treatment ratio versus control (day 14): 0.73*
- Glycerol, polar fraction, plasma, treatment ratio versus control (day 14): 0.95
- Heneicosanoic acid (C21:0), plasma, treatment ratio versus control (day 14): 0.86*
- Lactate, plasma, treatment ratio versus control (day 14): 0.86
- Linolenic acid (C18:cis[9,12,15]3), plasma, treatment ratio versus control (day 14): 0.9*
- Lysine, plasma, treatment ratio versus control (day 14): 1
- Malate, plasma, treatment ratio versus control (day 14): 0.79*
- Oleic acid (C18:cis[9]1), plasma, treatment ratio versus control (day 14): 0.8*
- Palmitoleic acid (C16:cis[9]1), plasma, treatment ratio versus control (day 14): 0.77
- Phenylalanine, plasma, treatment ratio versus control (day 14): 0.94*
- Phosphate (inorganic and organic phosphates), plasma, treatment ratio versus control (day 14): 1.03
- Pyruvate, plasma, treatment ratio versus control (day 14): 0.78
- Spermidine, plasma, treatment ratio versus control (day 14): 0.68*
- TAG (C16:0,C16:1), plasma, treatment ratio versus control (day 14): 0.66*
- Uracil, plasma, treatment ratio versus control (day 14): 0.9
- myo-Inositol, plasma, treatment ratio versus control (day 14): 0.82*
- trans-4-Hydroxyproline, plasma, treatment ratio versus control (day 14): 1.21*
- 18-Hydroxy-11-deoxycorticosterone, plasma, treatment ratio versus control (day 28): 0.68*
- Alanine, plasma, treatment ratio versus control (day 28): 0.91*
- Arachidonic acid (C20:cis[5,8,11,14]4), plasma, treatment ratio versus control (day 28): 0.84
- Coenzyme Q9, plasma, treatment ratio versus control (day 28): 0.83
- Creatinine, plasma, treatment ratio versus control (day 28): 1.19*
- DAG (C18:1, C18:2), plasma, treatment ratio versus control (day 28): 0.78
- Fructose-6-phosphate, plasma, treatment ratio versus control (day 28): 0.61*
- Galactose, lipid fraction, plasma, treatment ratio versus control (day 28): 0.71*
- Glucosamine, plasma, treatment ratio versus control (day 28): 1.3*
- Glucose, plasma, treatment ratio versus control (day 28): 0.93*
- Glycerol, polar fraction, plasma, treatment ratio versus control (day 28): 0.87*
- Heneicosanoic acid (C21:0), plasma, treatment ratio versus control (day 28): 0.96
- Lactate, plasma, treatment ratio versus control (day 28): 0.72*
- Linolenic acid (C18:cis[9,12,15]3), plasma, treatment ratio versus control (day 28): 0.99
- Lysine, plasma, treatment ratio versus control (day 28): 0.86*
- Malate, plasma, treatment ratio versus control (day 28): 0.7*
- Oleic acid (C18:cis[9]1), plasma, treatment ratio versus control (day 28): 0.91
- Palmitoleic acid (C16:cis[9]1), plasma, treatment ratio versus control (day 28): 0.77
- Phenylalanine, plasma, treatment ratio versus control (day 28): 0.95*
- Phosphate (inorganic and organic phosphates), plasma, treatment ratio versus control (day 28): 1.02*
- Pyruvate, plasma, treatment ratio versus control (day 28): 0.72*
- Spermidine, plasma, treatment ratio versus control (day 28): 0.77*
- TAG (C16:0,C16:1), plasma, treatment ratio versus control (day 28): 1.06
- Uracil, plasma, treatment ratio versus control (day 28): 0.71*
- myo-Inositol, plasma, treatment ratio versus control (day 28): 0.93*
- trans-4-Hydroxyproline, plasma, treatment ratio versus control (day 28): 1.15
